15 compounds from ChEMBL document CHEMBL1152728, “1-Amido-1-phenyl-3-piperidinylbutanes - CCR5 antagonists for the treatment of HIV. Part 1” (Bioorg Med Chem Lett, 2009) can be followed below.

The subject of series [1] is Human immunodeficiency virus 1. As to the kind of experiment: microbe, parasite or virus in culture. To be noted: Human immunodeficiency virus 1, Bal, PM1.
Series [2] concerns Liver microsomes. The series can be described thus: Metabolic stability in human liver microsomes assessed as clearance measured per mg of protein. In kind it is ADME, Microsome. A general note: Liver microsomes are vesicles of endoplasmic reticulum, rich in cytochrome P450 enzymes.
Series [3] is described as follows: physchem. To be noted: buffer, pH 7.4.
Series [4] has as its target Voltage-gated inwardly rectifying potassium channel KCNH2 (Homo sapiens, UniProt Q12809).
Description: Displacement of [3H]dofetilide from human ERG expressed in HEK293 cells
Series [5] in a line: physchem.
Description: Dissociation constant, pKa of the compound
In series [6] the target is hERG (KCNH2) (Homo sapiens, UniProt Q12809). The series can be described thus: in vitro. The conditions noted are these: HEK293 cells that express human ERG, probe [3H]dofetilide.
Sequence of hERG (KCNH2) (Q12809 whole entry): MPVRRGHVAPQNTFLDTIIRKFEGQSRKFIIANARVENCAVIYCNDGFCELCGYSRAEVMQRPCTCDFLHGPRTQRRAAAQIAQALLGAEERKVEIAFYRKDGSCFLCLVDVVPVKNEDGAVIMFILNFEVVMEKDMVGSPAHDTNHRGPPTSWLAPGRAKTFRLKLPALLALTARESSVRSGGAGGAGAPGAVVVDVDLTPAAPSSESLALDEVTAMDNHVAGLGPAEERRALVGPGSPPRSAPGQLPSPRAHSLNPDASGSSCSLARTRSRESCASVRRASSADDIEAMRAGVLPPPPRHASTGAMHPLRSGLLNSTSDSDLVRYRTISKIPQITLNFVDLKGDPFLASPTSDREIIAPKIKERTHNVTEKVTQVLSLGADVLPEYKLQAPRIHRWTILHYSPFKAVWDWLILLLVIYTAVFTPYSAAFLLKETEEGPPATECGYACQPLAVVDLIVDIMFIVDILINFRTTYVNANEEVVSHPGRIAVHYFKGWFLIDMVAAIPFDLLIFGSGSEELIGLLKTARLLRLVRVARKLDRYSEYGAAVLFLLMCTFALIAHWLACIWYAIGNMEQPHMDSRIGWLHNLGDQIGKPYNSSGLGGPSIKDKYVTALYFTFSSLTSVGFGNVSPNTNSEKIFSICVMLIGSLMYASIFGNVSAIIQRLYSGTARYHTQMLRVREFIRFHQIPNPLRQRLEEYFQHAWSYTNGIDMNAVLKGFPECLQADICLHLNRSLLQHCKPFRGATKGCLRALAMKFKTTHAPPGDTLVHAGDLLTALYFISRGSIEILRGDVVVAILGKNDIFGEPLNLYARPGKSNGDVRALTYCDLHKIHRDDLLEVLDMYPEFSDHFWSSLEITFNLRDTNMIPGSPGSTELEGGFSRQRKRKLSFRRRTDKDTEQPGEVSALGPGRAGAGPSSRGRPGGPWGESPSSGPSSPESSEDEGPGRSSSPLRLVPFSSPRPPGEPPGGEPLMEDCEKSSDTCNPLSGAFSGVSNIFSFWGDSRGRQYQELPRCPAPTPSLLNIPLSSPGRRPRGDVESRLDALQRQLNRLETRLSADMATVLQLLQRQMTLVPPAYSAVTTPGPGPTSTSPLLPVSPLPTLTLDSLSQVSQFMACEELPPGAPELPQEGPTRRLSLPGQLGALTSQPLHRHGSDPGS
Description: Displacement of [3H]dofetilide from human ERG expressed in HEK293 cells at 300 nM
For series [7], the system named is Human immunodeficiency virus 1. To be noted: Bal, PM1.

Active and inactive are the calls of the source. No cut-off for these calls is given here. Some results are limits rather than exact numbers.

One may read the IC90 as the concentration needed for an effect of 90%. A higher IC90 goes with a need for much substance. By logD is commonly meant lipophilicity at a set pH, counting ionised and neutral species. Read a high logD as higher lipophilicity. Broadly, the IC50 is the midpoint of a concentration-inhibition curve. A low value points to greater potency. By pKa is commonly meant the negative logarithm of the acid dissociation constant. As usually defined, the inhibition is the percentage by which the read-out fell short of the control. Read a low inhibition as a weak effect.

Sequence of Voltage-gated inwardly rectifying potassium channel KCNH2 (Q12809 whole entry): as above

Compound `CCN(C(=O)NCc1ccc(Cl)c(Cl)c1)C1CCN(C(C)C[C@H](NC(=O)C2CCC2)c2ccccc2)CC1` (some centres undefined) showed an IC90 in series [1] of 0.236 nM.

As to `Cc1nnc(C)n1C1CCN(C(C)C[C@H](NC(=O)C2CCC2)c2ccccc2)CC1` (some centres undefined), in series [2], the Stability was under 7 µL/min. In series [3], this compound returned a logD of 1.2.

Regarding `CC(C[C@H](NC(=O)C1CCC1)c1ccccc1)N1CCC(c2[nH]ncc2-c2ccncc2)CC1` (some centres undefined), in series [2], the Stability is 38 µL/min. The same compound returned an IC50 in series [4] of 117 nM. In series [3], this compound showed a pH-dependent lipophilicity (logD) of 2.4.

As to `Cc1nnc(C2CCN(C(C)C[C@H](NC(=O)C3CCC3)c3ccccc3)CC2)o1` (some centres undefined), the Stability in series [2] is under 7 µL/min. Also, the pH-dependent lipophilicity (logD) in series [3] was 1.3.

In the case of `Cc1nnc(C(C)C)n1[C@H]1C[C@H]2CC[C@@H](C1)N2CC[C@H](NC(=O)C1CCC(F)(F)CC1)c1ccccc1` [MARAVIROC], the Stability in series [2] was 22 µL/min. In series [3], this compound yielded a logD of 2. In series [5], this compound had a pKa of 7.7. For the same compound, in series [1], the 90% effect level (IC90) was put at 0.7 nM.

As to `Cc1nnc(C(C)C)n1C1CCN(CC[C@H](NC(=O)C2CCC(F)(F)CC2)c2ccccc2)CC1`, the Stability in series [2] is under 8 µL/min. This compound registered a pH-dependent lipophilicity (logD) in series [3] of 1.7. In series [5], this compound had a pKa of 7.2. This compound also gave an inhibition at 0.3 µM in series [6] of 0%. Further, the outcome in series [7] was inactive.

As for `CC(C)c1noc(C2CCN(C(C)C[C@H](NC(=O)C3CCC3)c3ccccc3)CC2)n1` (some centres undefined), the Stability in series [2] came to 204 µL/min. For the same compound, in series [3], the pH-dependent lipophilicity (logD) is 3.2.

In turn, `CCN(C(=O)c1ccc(F)cc1)C1CCN(C(C)C[C@H](NC(=O)C2CCC2)c2ccccc2)CC1` (some centres undefined) yielded an IC90 in series [1] of 1630 nM.

With `CC(C[C@H](NC(=O)C1CCC1)c1ccccc1)N1CCC(n2cc(-c3ccccc3)[nH]c2=O)CC1` (some centres undefined), the Stability in series [2] was found to be 35 µL/min. In series [4], this compound returned a half-inhibitory concentration (IC50) of 4.7 nM. In series [3], this compound came in with a pH-dependent lipophilicity (logD) of 3.5.

`Cc1nnc(C(C)C)n1C1CCN(C(C)C[C@H](NC(=O)C2CCC2)c2ccccc2)CC1` (some centres undefined): the Stability in series [2] is under 7 µL/min. The logD in series [3] came out at 1.9.

For the compound `Cc1noc(C2CCN(C(C)C[C@H](NC(=O)C3CCC3)c3ccccc3)CC2)n1` (some centres undefined), the Stability in series [2] stood at 56 µL/min. The same compound yielded a pH-dependent lipophilicity (logD) in series [3] of 2.1.

For `CCN(C(=O)OCc1ccccc1)C1CCN(C(C)C[C@H](NC(=O)C2CCC2)c2ccccc2)CC1` (some centres undefined), the concentration for an effect of 90% (IC90) in series [1] came out at 0.322 nM. This counts as sub-nanomolar.

`CCN(C(=O)Cc1ccc(OC)cc1)[C@H]1C[C@H]2CC[C@@H](C1)N2CC[C@H](NC(=O)C1CCC1)c1ccccc1`: the Stability in series [2] came out at 183 µL/min. In series [3], this compound displayed a pH-dependent lipophilicity (logD) of 2.9. Moreover, in series [5], the pKa turned out to be 8.7.

In series [1], `CCN(C(=O)Oc1ccc(F)cc1)C1CCN(C(C)C[C@H](NC(=O)C2CCC2)c2ccccc2)CC1` (some centres undefined) showed an IC90 of 61.4 nM. This lies in the double-digit nanomolar range.

For `CC(C[C@H](NC(=O)C1CCC1)c1ccccc1)N1CCC(c2nnc(CN(C)C)o2)CC1` (some centres undefined), the Stability in series [2] was under 7 µL/min. Further, the logD in series [3] was 1.1.
